According to patent US6147107A, “Specific inhibition of the P42/44 mitogen activated protein (map) kinase cascade sensitizes tumor cells” (priority 1998, dated 2000):
Entries after “also recorded” stand apart in the source; their conditions may differ. Where two headings read alike, the source gives them in different places.

Key:
HL-60 cells [1] = experiment: DNA strand breakage in HL-60 cells; format: cell-based, human; details: ara-C (10 μM) + PD98059 (2.5 μM), 6 hours
Protocol: (§1) FIGS. 9a and 9b. […] HL-60 cells were exposed to ara-C (10 μM) in the absence or presence of aminomethoxyflavone (PD98059; 2.5 μM) for 6 hours. Apoptotic DNA damage and cell death were assessed as described in Methods. […] FIG. 9b.
Quantitative Analysis of DNA Damage: The formation and release of DNA fragments and the corresponding breakage of bulk DNA were assessed by bisbenzamide spectrofluorophtometry. To measure intracellular DNA fragments, pelleted cells (4×10^6 cells/pellet in quadruplicate)were resuspended in PBS and lysed by addition of 5 mM Tris-HCl, 30 mM EGTA, 30 mM EDTA, 0.1% Triton X-100, pH 8 (yielding a final density of 10^7 cells,ml) with gentle mechanical agitation. The lysates were centrifuged at 30,000× g at 4° C. for 40 minutes. […] The pellets were discarded and the presence of non-sedimenting DNA fragments in the supernatant from the lysate and medium extracts was quantified following dilution in modified Tris-sodium EGTA buffer (3 mM NaCl, 10 mM Tris-HCl, 1 mM EGTA, pH 8) by spectrofluorophotometry in the presence of Hoechst-33258 (1 μg/ml; μex=365, λem=460). Net fluorescence was directly proportional to the presence of DNA fragments; final values were calculated relative to a highly purified calf thymus DNA calibration standard, and are expressed as ng/μg DNA recovered or released from 10^6 cells. […]

MEK1 and MEK2 [2] = experiment: Inhibition of Raf-mediated phosphorylation/activation of MEK1/2; format: biochemical
cancer cells = experiment: Radiosensitization of cancer cells; format: cell-based; details: general statement
p42/44 MAP kinase = experiment: MAP kinase activity in HL-60 cells (immunoprecipitation, MBP substrate); format: cell-based, human
Protocol: FIG. 8. […] HL-60 cells were exposed to ara-C (10 μM) in the absence or presence of aminomethoxyflavone (PD98059; 2.5 μM) for 3 hours. MAP kinase activity (p42-ERK1/p44-ERK2) was determined by in vitro assay. In each case, values reflect the mean ±SE of duplicate determinations, and are expressed as a percentage of basal activity present in untreated controls.
(§2) Determination of MAPK Activity: Pelleted cells were rinsed in PBS, repelleted, and flash-frozen. Cell pellets were lysed in 25 mM Hepes, pH 7.4 containing 5 mM EGTA, 5 mM EDTA, supplemented with protease inhibitors (5 mM benzamidine, 1 mM phenylmethylsulfonylfluoride, 1 mg/ml soybean trypsin inhibitor, 40 μg/ml aprotinin, 1 μM microcystin LR) phosphatase inhibitors (0.5 mM trisodium orthovanadate, 0.5 mM tetrasodium pyrophosphate), and containing 0.056% sodium deoxycholate w/v, 1% Triton X-100 v/v, and 0.1% 2-mercaptoethanol v/v. Lysates were clarified by centrifugation at 5,000× g at 4° C. for 5 min. MAPK activity was assayed using MBP as a substrate following immunoprecipitation of p42/44 MAP kinase with protein A/agarose-conjugated antibody/antisera. Preimmune controls were also run to ensure selectivity of substrate phosphorylation. Reaction mixtures consisted of immunoprecipitated enzyme, substrate, and [γ-^32 P] ATP ([…]) in 25 mM Hepes, pH 7.4 containing 15 mM MgCl2, […], 0.01% (v/v) 2-mercaptoethanol, 1 μM […]. Reactions were initiated by the addition of substrate. MAPK reactions were terminated by transfer to p81 filter paper; filters were rinsed repeatedly in 185 mM orhtophosphoric acid, and then dehydrated in acetone. Total radioactivity in filters was determined by liquid scintillometry.
HL-60 cells were exposed to ara-C in the absence or presence of PD98059. Following this treatment, the cells were eveluated for MAP kinase activity, DNA strand breakage, clonogenicity potential and extent of apoptosis.

[3] = tested on: p42/44 MAP kinase cascade; experiment: Inhibition of p42/44 MAP kinase cascade activity in A431 cells; format: cell-based, human; details: PD98059, 1 Gy
Protocol: as §2

A431 cells [4] = experiment: [3H]thymidine incorporation into DNA of A431 cells; format: cell-based, human; details: PD98059 alone, over 96 hours; not shown
A431 cells [5] = experiment: Propidium iodide staining (necrosis/cell integrity) of A431 cells after radiation; format: cell-based, human; details: PD98059 + 1 Gy; data not shown
A431 cells [6] = experiment: TUNEL assay, apoptosis of A431 cells after radiation; format: cell-based, human
Protocol: The ability of the cells to survive was assessed using TUNEL assays 24 hours after irradiation and the results are depicted in FIG. 4.

A431 cells [7] = tested on: A431 cells
MEK1 and MEK2 [8] = details: general statement on known inhibitors; cited from earlier work
HL-60 cells [9] = experiment: Apoptosis of HL-60 cells (ara-C); format: cell-based, human
Protocol: as §1

HL-60 cells [10] = experiment: Taxol-mediated apoptosis of HL-60 cells
HL-60 cells [11] = experiment: Clonogenicity of HL-60 cells; format: cell-based, human
Protocol: as §1
Determination of Clonogenicity: Pelleted cells were rinsed extensively and prepared for soft-agar cloning. Cells were resuspended in cold PBS and seeded in 35-mm culture plates at a fixed density (400 cell/ml/well) in complete RPMI-1640 medium containing 20% fetal calf serum, 10% 5637-CM, and 0.3% Bacto agar. Cultures were mainatined for 10 to 12 days before formation of colonies (defined as groups of ≥50 cells) was scored.

[12] = ara-C (10 μM) + PD98059 (2.5 μM), 6 hours

COc1cccc(-c2cc(=O)c3ccccc3o2)c1N [PD98059, 2'-amino-3'-methoxy-flavone]
DNA strand breakage induced by ara-C (HL-60 cells [1]): substantially increased | inhibition of MEK1 and MEK2 (MEK1 and MEK2 [2]; general statement): all inhibit MEK1 and MEK2 | inhibition of Raf phosphorylation of MEK1 and MEK2 (MEK1 and MEK2 [2]; stated as demonstrated by the applicant): inhibiting the ability of Raf protein kinases to phosphorylate MEK1 and MEK2 | radiosensitization of cancer cells (cancer cells): all cause radiosensitization of cancer cells | MAP kinase activity (p42/44 MAP kinase; 2.5 μM PD98059, with or without ara-C (10 μM), 3 hours): Suppression of MAP kinase activity | suppression of ara-C-related stimulation of MAP kinase (p42/44 MAP kinase; 5 μM PD98059 + ara-C): completely suppresses | basal MAP kinase activity (p42/44 MAP kinase; 1-100 μM PD98059, acute exposure): pronounced concentration-related decline | Emax (p42/44 MAP kinase; Homo sapiens, HL-60, 1-100 μM PD98059, read-out: maximal decrease of basal MAP kinase activity): ≥ 65% | EC50 (p42/44 MAP kinase; Homo sapiens, HL-60, PD98059, acute exposure, read-out: EC50, decline of basal MAP kinase activity): ≤ 5 µM | correlation of MAP kinase cascade inhibition with potentiation of cell death [3]: correlated with its dose-dependent ability to potentiate cell death | proliferative capacity ([3H]thymidine incorporation) (A431 cells [4]): overall dose-dependent decrease in proliferative capacity | potentiation of cell death (propidium iodide staining of unfixed cells) (A431 cells [5]): large potentiation of cell death | enhancement ratio, co-treatment versus either radiation or PD98059 alone (A431 cells [6]; 5 μM PD98059 + 1 Gy): approximately threefold | percentage of cells exhibiting double stranded DNA breaks (A431 cells [6]; 5 μM PD98059 + 1 Gy, increased from ~4 to 15): 4-15% | amount of cell killing compared to either treatment alone (A431 cells [6]; 5 μM PD98059 + single 1 Gy exposure): tripled | potentiation of cell death (TUNEL) (A431 cells [6]; 5, 10 and 20 μM PD98059 + 1 Gy radiation): large potentiation of cell death | effect upon the basal levels of cell viability (A431 cells [6]; PD98059 alone, low concentrations, 24 hours): small non-significant detrimental effect | cellular proliferation (MTT) (A431 cells [7]; 5, 10 or 20 μM PD98059 + 1 Gy): markedly decreased cellular proliferation | enhancement ratios (MTT) (A431 cells [7]; PD98059 + 1 Gy): at least threefold | proliferative rate (MTT) (A431 cells [7]; PD98059 + 1 Gy radiation, 4-8 days): Decreased proliferative rate | proliferative capacity versus either exposure or treatment alone (MTT) (A431 cells [7]; PD98059 + radiation, 4-8 days): large reduction in proliferative capacity | proliferative rate (MTT) (A431 cells [7]; PD98059 alone, 4-8 days): Decreased proliferative rate | mode of action at MEK1/2 (MEK1 and MEK2 [8]): bind to MEK1/2 and sterically prevent Raf from binding | potentiation of apoptotic activity of ara-C (HL-60 cells [9]; PD98059 + ara-C): Potentiation of ara-C-induced apoptosis; also recorded: highly effective | extent of apoptosis attributable to ara-C action (HL-60 cells [9]; [12]): dramatically increased | cytotoxicity at 10 µM (HL-60 cells [10]; Homo sapiens, HL-60, 15 h, read-out: apoptotic cells, PD98059 alone): 6 to 7% | cell death, taxol plus PD98059 (HL-60 cells [10]; taxol 0.5 μM + PD98059 10 μM): 58% | clonogenic potential (HL-60 cells [11]; [12]): practically nullified | clonogenic potential, single agent (HL-60 cells [11]; either agent alone): neither alone had this effect
